{"source": "ChEMBL document CHEMBL1201862", "about": "“PubChem BioAssay data set” (2004)", "target": "Envelope glycoprotein gp160 (Human immunodeficiency virus 1, UniProt Q6QLK5)", "sequence (Q6QLK5 whole entry, the tested form may be a part)": "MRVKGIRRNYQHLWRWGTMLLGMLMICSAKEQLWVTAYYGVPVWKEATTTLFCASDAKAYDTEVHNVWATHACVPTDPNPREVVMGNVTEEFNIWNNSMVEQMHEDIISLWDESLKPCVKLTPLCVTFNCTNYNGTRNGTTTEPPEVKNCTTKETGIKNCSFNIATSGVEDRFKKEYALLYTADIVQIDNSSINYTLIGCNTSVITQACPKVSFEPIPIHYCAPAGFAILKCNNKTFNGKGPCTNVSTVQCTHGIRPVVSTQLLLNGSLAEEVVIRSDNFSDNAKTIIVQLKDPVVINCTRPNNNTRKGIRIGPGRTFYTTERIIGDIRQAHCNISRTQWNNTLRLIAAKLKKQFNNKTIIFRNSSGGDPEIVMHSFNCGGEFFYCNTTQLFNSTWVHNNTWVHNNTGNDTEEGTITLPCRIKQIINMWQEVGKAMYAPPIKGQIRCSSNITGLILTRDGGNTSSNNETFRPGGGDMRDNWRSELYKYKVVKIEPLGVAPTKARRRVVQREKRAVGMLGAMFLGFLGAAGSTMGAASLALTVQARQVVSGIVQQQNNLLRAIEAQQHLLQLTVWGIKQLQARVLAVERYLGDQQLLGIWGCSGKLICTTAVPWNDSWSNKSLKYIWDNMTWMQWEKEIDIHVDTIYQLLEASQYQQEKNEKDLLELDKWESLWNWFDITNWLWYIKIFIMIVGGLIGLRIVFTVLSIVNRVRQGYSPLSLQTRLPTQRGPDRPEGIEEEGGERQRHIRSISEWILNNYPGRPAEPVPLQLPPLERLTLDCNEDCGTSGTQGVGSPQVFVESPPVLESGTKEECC", "assay": "cell-free HIV fusion peptide-binding blockers – biochemical, uHTS, fluorescence dequenching, […] (AID 1986)", "note": "Activity calls are given as the source filed them. No stated cut-off is given here; in the data, actives have a measured IC50 and inactives only a lower limit."}
{"compound": "COc1cccc(-c2coc3c(C)c4oc(=O)c(CCC(=O)O)c(C)c4cc23)c1", "values": [{"measurement": "IC50", "result": "22.7 µM (active)"}]}
{"compound": "COc1cc(NS(=O)(=O)c2ccc(Nc3nc(-c4ccccc4)cs3)cc2)nc(OC)n1", "values": [{"measurement": "IC50", "result": "20.4 µM (active)"}]}
